Our source for the IC50 values is US8445680B2, “Tetrahydrothieno pyridines” (Merck Sharp & Dohme Corp., priority 2008, dated 2013).

T1 sequence (Q9GZT9 whole entry): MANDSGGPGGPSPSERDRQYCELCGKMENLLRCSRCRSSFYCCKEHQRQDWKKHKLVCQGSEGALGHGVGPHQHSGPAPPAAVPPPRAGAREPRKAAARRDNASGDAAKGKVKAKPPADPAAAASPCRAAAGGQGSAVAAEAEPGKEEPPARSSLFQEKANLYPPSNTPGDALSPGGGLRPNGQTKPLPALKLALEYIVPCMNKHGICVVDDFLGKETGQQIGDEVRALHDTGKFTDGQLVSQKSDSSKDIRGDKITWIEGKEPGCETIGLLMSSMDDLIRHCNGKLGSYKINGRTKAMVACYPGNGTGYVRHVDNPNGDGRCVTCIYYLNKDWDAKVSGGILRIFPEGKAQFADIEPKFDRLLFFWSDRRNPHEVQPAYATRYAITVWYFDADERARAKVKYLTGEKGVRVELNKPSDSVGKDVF

The assay has as its target T1, FLAG-tagged full length PHD2 (Homo sapiens, UniProt Q9GZT9).
T1 construct: FLAG-tagged full length PHD2; FLAG; made in house; host or cells: baculovirus-infected Sf9 cells
The experiment in a line: PHD2 inhibition assay (time resolved fluorescence, HIF-1α peptide hydroxylation, VHL detection). The following applies: 0.2 μM 2-oxoglutarate, 0.5 μM HIF-1α peptide, 2 hr at room temperature; read-out: PHD2 Activity (PHD2 binding activity expressed as IC50). Format: biochemical. In outline:
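Sf9-expressed FLAG-tagged full-length PHD2 (0.15 μg/ml) preincubated with compound 30 min at room temperature in Tris pH 7.4 buffer with 10 μM ferrous sulfate, 1 mM ascorbate and catalase. Reaction started with 0.2 μM 2-oxoglutarate and 0.5 μM biotinylated HIF-1α peptide (final); hydroxylation detected by time-resolved fluorescence via VHL complex binding.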
The IC50 is the concentration that gives 50% inhibition. `O=C(O)CNC(=O)c1c(O)c2c(n(Cc3cnc(-c4cc(F)ccc4F)cn3)c1=O)CSC2` [Example 56, N-[(l-{[5-(2,5-difluorophenyl)pyrazin-2-yl]methyl}-4-hydroxy-2-oxo-1,2,5,7-tetrahydrothieno[3,4-b]pyridin-3-yl)carbonyl]glycine]: the IC50 is not above 10 nM.

For `O=C(O)CNC(=O)c1c(O)c2c(n(Cc3cnc(-c4ccccc4C(F)(F)F)cn3)c1=O)CSC2` [Example 57, N-{[4-hydroxy-2-oxo-1-({5-[2-(trifluoromethyl)phenyl]pyrazin-2-yl}methyl)-1,2,5,7-tetrahydrothieno[3,4-b]pyridin-3-yl]carbonyl}glycine], the IC50 was not above 10 nM.

For the compound `Cc1ccc(-c2ccc(Cn3c4c(c(O)c(C(=O)NCC(=O)O)c3=O)CS(=O)(=O)C4)cc2)cc1` [Example 58, N-({4-hydroxy-1-[(4′-methylbiphenyl-4-yl)methyl]-6,6-dioxido-2-oxo-1,2,5,7-tetrahydrothieno[3,4-b]pyridin-3-yl}carbonyl)glycine], the IC50 is not above 10 nM.

Consider `Cc1ccc(-c2ccc(Cn3c4c(c(O)c(C(=O)NCC(=O)O)c3=O)C[S+]([O-])C4)cc2)cc1` (centres unmarked) [Example 59, N-({4-hydroxy-1-[(4′-methylbiphenyl-4-yl)methyl]-6-oxido-2-oxo-1,2,5,7-tetrahydrothieno[3,4-b]pyridin-3-yl}carbonyl)glycine], for which the IC50 is not above 10 nM.

In the case of `O=C(O)CNC(=O)c1c(O)c2c(n(Cc3ccc(Cl)cc3)c1=O)CS(=O)(=O)C2` [Example 60, N-{[1-(4-chlorobenzyl)-4-hydroxy-6,6-dioxido-2-oxo-1,2,5,7-tetrahydrothieno[3,4-b]pyridin-3-yl]carbonyl}glycine], the IC50 is not above 10 nM.

On to `CC(C)c1ccc(Cn2c3c(c(O)c(C(=O)NCC(=O)O)c2=O)CS(=O)(=O)C3)cc1` [Example 61, N-{[4-hydroxy-1-(4-isopropylbenzyl)-6,6-dioxido-2-oxo-1,2,5,7-tetrahydrothieno[3,4-b]pyridin-3-yl]carbonyl}glycine], for which the IC50 was not above 10 nM.

In the case of `O=C(O)CNC(=O)c1c(O)c2c(n(Cc3nc(-c4ccccc4)cs3)c1=O)CS(=O)(=O)C2` [Example 62, N-({4-hydroxy-6,6-dioxido-2-oxo-1-[(4-phenyl-1,3-thiazol-2-yl)methyl]-1,2,5,7-tetrahydrothieno[3,4-b]pyridin-3-yl}carbonyl)glycine], the IC50 was in the range of 10 to 100 nM.

`O=C(O)CNC(=O)c1c(O)c2c(n(Cc3ccc(C(F)(F)F)cc3)c1=O)CS(=O)(=O)C2` [Example 63, N-({4-hydroxy-6,6-dioxido-2-oxo-1-[4-(trifluoromethyl)benzyl]-1,2,5,7-tetrahydrothieno[3,4-6]pyridin-3-yl}carbonyl)glycine]: the IC50 was not above 10 nM.

In the case of `O=C(O)CNC(=O)c1c(O)c2c(n(Cc3ccc(-c4ccccc4)cc3)c1=O)CS(=O)(=O)C2` [Example 64, N-{[1-(biphenyl-4-ylmethyl)-4-hydroxy-6,6-dioxido-2-oxo-1,2,5,7-tetrahydrothieno[3,4-b]pyridin-3-yl]carbonyl}glycine], the IC50 is not above 10 nM.

Turning to `O=C(O)CNC(=O)c1c(O)c2c(n(Cc3ccc(OC(F)(F)F)cc3)c1=O)CS(=O)(=O)C2` [Example 65, N-({4-hydroxy-6,6-dioxido-2-oxo-1-[4-(trifluoromethoxy)benzyl]-1,2,5,7-tetrahydrothieno[3,4-b]pyridin-3-yl}carbonyl)glycine], the IC50 is not above 10 nM.

With `CCc1ccc(Cn2c3c(c(O)c(C(=O)NCC(=O)O)c2=O)CS(=O)(=O)C3)cc1` [Example 66, N-{[1-(4-ethylbenzyl)-4-hydroxy-6,6-dioxido-2-oxo-1,2,5,7-tetrahydrothieno[3,4-b]pyridin-3-yl]carbonyl}glycine], the IC50 was not above 10 nM.
